Laboratory results taken from patent EP1614683B1, “Indazole compounds and pharmaceutical compositions for inhibiting protein kinases, and methods for their use” (priority 1999, dated 2001).
Read-outs that look alike come from different tables or passages of the source.

Key:
human FGF-R1 = human FGF-R1 (Homo sapiens, UniProt P11362, C488A/C584S/L457V); experiment: FGF-R spectrophotometric assay; format: biochemical
Method: The spectrophotometric assay was carried out as described above for VEGF-R2, except for the following changes in concentration: FGF-R = 50 nM, ATP = 2 mM, and poly(E4Y1) =15 mM.

human CHK1 (FL-CHK1) = target: T1, human CHK1 (FL-CHK1) (Homo sapiens, UniProt O14757); experiment: CHK1 coupled spectrophotometric assay; format: biochemical
T1 construct: C-terminally His-tagged full-length human CHK1 (FL-CHK1) was expressed using the baculovirus/insect cell system; made in house; host or cells: baculovirus/insect cell system
T1 sequence (O14757 1-476): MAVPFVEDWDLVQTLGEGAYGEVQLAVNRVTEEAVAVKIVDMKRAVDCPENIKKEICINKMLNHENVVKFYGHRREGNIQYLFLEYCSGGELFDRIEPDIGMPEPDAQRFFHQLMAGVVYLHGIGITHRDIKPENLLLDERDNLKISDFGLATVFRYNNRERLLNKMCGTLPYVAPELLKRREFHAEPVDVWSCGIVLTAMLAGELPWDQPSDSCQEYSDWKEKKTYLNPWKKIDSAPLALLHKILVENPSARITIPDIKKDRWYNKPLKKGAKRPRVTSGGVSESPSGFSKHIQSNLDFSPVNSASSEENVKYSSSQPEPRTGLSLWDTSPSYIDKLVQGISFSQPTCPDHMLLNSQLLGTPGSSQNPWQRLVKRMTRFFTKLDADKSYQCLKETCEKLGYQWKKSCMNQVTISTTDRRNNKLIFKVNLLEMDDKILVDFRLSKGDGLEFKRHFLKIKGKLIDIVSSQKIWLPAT
Excerpt: CHK1 Construct for Assay: C-terminally His-tagged full-length human CHK1 (FL-CHK1) was expressed using the baculovirus/insect cell system. […] The protein was purified by conventional chromatographic techniques.
The production of ADP from ATP that accompanies phosphoryl transfer to the synthetic substrate peptide Syntide-2 ([…]) was coupled to oxidation of NADH using phosphoenolpyruvate (PEP) through the actions of pyruvate kinase (PK) and lactic dehydrogenase (LDH). The oxidation of NADH was monitored by following the decrease of absorbance at 340 nm (∈340 = 6.22 cm^-1 mM^-1) using a HP8452 spectrophotometer. […] Assays were initiated with 10 nM of FL-CHK1. Ki values were determined by measuring initial enzyme activity in the presence of varying concentrations of test compounds. The data were analyzed using Enzyme Kinetic and Kaleidagraph software.

LCK tyrosine kinase = LCK tyrosine kinase (Homo sapiens, UniProt P06239, C224D/P223M); experiment: LCK spectrophotometric assay; format: biochemical
Method: The spectrophotometric assay was carried out as described above for VEGF-R2, except for the following changes in concentration: LCK = 60 nM, MgCl2 = 0 mM, poly(E4Y1) = 20 mM.

[1] = target: T2, phosphorylated Tie-2 (aa 775-1122) (Homo sapiens, UniProt Q02763); experiment: TIE-2 spectrophotometric assay; format: biochemical; details: for inhibition at 10 µM: read-out: % Inhibition Tie2-P, compound tested at 10 µM; for inhibition at 1 µM: read-out: % Inhibition @ 1 µM Tie2-P
T2 construct: 4 to 12 nM phosphorylated Tie-2 (aa 775-1122); made in house; host or cells: insect cells
Method: This construct also carries a R774M mutation, which serves as the initiating methionine residue in translation.
The kinase-catalyzed production of ADP from ATP that accompanies phosphoryl transfer to the random copolymer poly(Glu4 Tyr) was coupled to the oxidation of NADH through the activities of pyruvate kinase (PK) and lactate dehydrogenase (LDH). NADH conversion to NAD* was monitored by the decrease in absorbance at 340 nm (ε = 6.22 cm^-1mM^-1) using a Beckman DU650 spectrophotometer. Typical reaction solutions contained 1 mM phosphoenolpyruvate, 0.24 mM NADH, 40 mM MgCl2, 5 mM DTT, 2.9 mg/mL poly(Glu4Tyr), 0.5 mM ATP, 15 units/mL PK, 15 units/mL LDH in 100 mM HEPES, pH 7.5. […]

[2] = test system: human umbilical vein endothelial cells (HUVEC); experiment: HUVEC proliferation assay (VEGF-stimulated, MTT); format: cell-based; details: Homo sapiens, HUVEC, Table 1
[3] = PO, 25 mg/kg, vehicle PEG400:H2O pH 2.3 30:70
in vivo = details: mouse, plasma, po, 25 mg/kg, pH 2.3
[4] = target: unphosphorylated VEGF-R2Δ50 (Homo sapiens, UniProt P35968, DEL940-989/E990V); experiment: biochemical; details: read-out: FLVK ** (% inhibition)
[5] = read-out: CHK-1* (% inhibition @ 50 µM)
[6] = Table 5, 1 µM, bold values spectrophotometric assay, non-bolded DELFIA assay (bold not visible here)

Sequence of human FGF-R1 (P11362 456-766 L457V/C488A/C584S): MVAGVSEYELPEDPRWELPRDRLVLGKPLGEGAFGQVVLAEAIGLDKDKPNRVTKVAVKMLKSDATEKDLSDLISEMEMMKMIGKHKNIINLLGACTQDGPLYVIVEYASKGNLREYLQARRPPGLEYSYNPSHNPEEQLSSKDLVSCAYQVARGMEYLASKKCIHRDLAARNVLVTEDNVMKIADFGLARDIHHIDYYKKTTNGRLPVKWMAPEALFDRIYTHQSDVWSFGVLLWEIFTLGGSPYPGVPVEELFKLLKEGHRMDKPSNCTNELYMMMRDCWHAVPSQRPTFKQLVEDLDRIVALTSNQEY
T2 sequence (Q02763 775-1122): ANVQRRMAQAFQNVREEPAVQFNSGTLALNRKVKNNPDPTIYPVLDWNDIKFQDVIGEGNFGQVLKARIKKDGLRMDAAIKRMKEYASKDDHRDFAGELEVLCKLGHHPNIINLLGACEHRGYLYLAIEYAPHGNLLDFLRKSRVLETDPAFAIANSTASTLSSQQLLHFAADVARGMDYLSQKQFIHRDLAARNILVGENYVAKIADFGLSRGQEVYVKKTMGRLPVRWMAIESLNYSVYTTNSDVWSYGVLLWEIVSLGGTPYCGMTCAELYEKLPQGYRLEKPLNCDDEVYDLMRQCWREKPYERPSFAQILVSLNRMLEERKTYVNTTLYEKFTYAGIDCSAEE
Sequence of LCK tyrosine kinase (P06239 223-509 P223M/C224D): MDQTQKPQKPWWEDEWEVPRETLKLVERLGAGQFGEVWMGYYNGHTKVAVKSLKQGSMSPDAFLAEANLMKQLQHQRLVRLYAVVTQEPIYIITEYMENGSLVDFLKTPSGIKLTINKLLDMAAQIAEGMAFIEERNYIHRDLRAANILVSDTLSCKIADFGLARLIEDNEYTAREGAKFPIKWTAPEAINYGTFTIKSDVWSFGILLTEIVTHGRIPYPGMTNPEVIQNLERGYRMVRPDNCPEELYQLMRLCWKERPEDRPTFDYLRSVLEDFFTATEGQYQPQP
Sequence of unphosphorylated VEGF-R2Δ50 (P35968 with tags, fused parts or gaps DEL940-989/E990V limits assumed): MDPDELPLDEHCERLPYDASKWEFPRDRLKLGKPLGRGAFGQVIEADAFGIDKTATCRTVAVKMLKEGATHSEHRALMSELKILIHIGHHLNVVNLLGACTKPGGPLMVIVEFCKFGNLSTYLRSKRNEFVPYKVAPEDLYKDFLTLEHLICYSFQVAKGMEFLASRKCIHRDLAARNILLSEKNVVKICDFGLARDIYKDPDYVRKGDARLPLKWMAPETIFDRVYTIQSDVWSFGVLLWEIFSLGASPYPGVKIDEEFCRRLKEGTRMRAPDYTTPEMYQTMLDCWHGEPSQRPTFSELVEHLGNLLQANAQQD

Molecule: COc1cc(O)ccc1-c1ccc2c(-c3nc4ccc(N5CCN(C)CC5)cc4[nH]3)n[nH]c2c1 [Reference Example 25(c), 3-[6-(4-methylpiperazin-1-yl)-1H-benzoimidazol-2-yl]-6-(2-methoxy-4-hydroxyphenyl)-1H-indazole]
- inhibition at 1 µM (human FGF-R1; read-out: FGF* (% inhibition)): 96%
- inhibition at 1 µM (human CHK1 (FL-CHK1); read-out: CHK1* (% inhibition)): 90%

Molecule: 3-(1H-benzoimidazol-2-yl)-N-(4-hydroxy-3-methylphenyl)-1H-indazole-6-carboxamide [Example 53(c)]
- Ki (human CHK1 (FL-CHK1); Table 3; read-out: CHK-1* (Ki)): 1100 nM

Molecule: COc1cc(O)ccc1-c1ccc2c(-c3nc4ccncc4[nH]3)n[nH]c2c1 [Reference Example 25(a), 3-(3H-Imidazo[4,5-c]pyridin-2-yl)-6-(4-hydroxy-2-methoxyphenyl)-1H-indazole]
- inhibition at 1 µM (human FGF-R1; read-out: FGF* (% inhibition)): 62%
- inhibition at 1 µM (LCK tyrosine kinase; read-out: Lck* (% inhibition)): 44%
- inhibition at 1 µM (human CHK1 (FL-CHK1); read-out: CHK1* (% inhibition)): 49%

Molecule: C=C(c1ccccc1)c1ccc2c(/C=C/c3ccccc3)n[nH]c2c1 [Example 10, 6-(1-Phenyl-vinyl)-3-styryl-1H-indazole]
- inhibition at 10 µM [1]: 20%
- IC50 ([2]; read-out: HUVEC IC50): > 700 nM

Molecule: COc1ccc(-c2ccc3c(/C=C/c4ccccc4)n[nH]c3c2)cc1OC [Reference Example 27(j)]
- inhibition at 50 µM (human CHK1 (FL-CHK1); [5]): 15%

Molecule: Oc1ccc(-c2ccc3c(-c4cc5ccccc5o4)n[nH]c3c2)cc1OCc1ccccc1 [2(e), 3-(Benzofuran-2-yl)-6-(3-benzyloxy-4-hydroxy-phenyl)-1H-indazole]
- inhibition at 20 µM (human CHK1 (FL-CHK1); read-out: CHK -1* (% inhibition @ 20 µM)): 5%

Molecule: Cc1c(O)ccc(NC(=O)c2ccc3c(-c4nc5ccccc5[nH]4)n[nH]c3c2)c1C [Example 53(d), 3-(1H-benzoimidazol-2-yl)-N-(4-hydroxy-2,3-dimethylphenyl)-1H-indazole-6-carboxamide]
- CHK-1* (inhibition @ 100 µM) (human CHK1 (FL-CHK1); Table 3; @ 100 µM; NI = no significant inhibition): Nl @ 100 µM

Molecule: CN(c1cccc(NC(=O)OCc2ccccc2)c1)c1ccc2c(/C=C/c3ccccc3)n[nH]c2c1 [12(c), {3-[Methyl-(3-styryl-1H-indazol-6-yl)-amino]-phenyl}-carbamic acid benzyl ester]
- inhibition at 1 µM [1, 6]: 17%

Molecule: Clc1cccc(Cl)c1/C=C/c1n[nH]c2cc(-c3ccncc3)ccc12 [Reference Example 29(a), 6-pyrid-4-yl-3-E-[2-(2,6-dichlorophenyl)ethenyl]-1H-indazole]
- CHK-1* (inhibition @ 25 µM) (human CHK1 (FL-CHK1); Table 3; @ 25µM; NI = no significant inhibition): Nl @ 25µM

Molecule: C=C(c1cccc(NC(=O)c2ncc(C)s2)c1)c1ccc2c(/C=C/c3ccccc3)n[nH]c2c1 [22(a), 6-(1-(3-(5-Methyl-thiaxole-2-carboxoylamido)phenyl)-vinyl)-3-styryl-1H-indazole]
- inhibition at 1 µM [1, 6]: 8%
- IC50 ([2]; read-out: HUVEC IC50): 12 nM

Molecule: CN(c1cccc(N)c1)c1ccc2c(/C=C/c3ccccc3)n[nH]c2c1 [Example 11, N-Methyl-N-(3-styryl-1H-indazol-6-yl)-benzene-1,3-diamine]
- inhibition at 1 µM [1, 6]: 40%

Molecule: C(=C\c1n[nH]c2cc(-c3cccc4ccccc34)ccc12)/c1ccccc1 [Reference Example 27(d)]
- inhibition at 10 µM (human CHK1 (FL-CHK1); read-out: CHK-1* (% inhibition @ 10 µM)): 14%

Molecule: CN(c1ccccc1)c1ccc2c(/C=C/c3ccccc3)n[nH]c2c1 [Example 14, Methyl-phenyl-(3-styryl-1H-indazol-6-yl)-amine]
- inhibition at 25 µM (human CHK1 (FL-CHK1); read-out: CHK -1* (% inhibition @ 25 µM)): 12%

Molecule: C=C(c1cccc(N)c1)c1ccc2c(/C=C/c3ccccc3)n[nH]c2c1 [Example 21, 6-(1-(3-Aminophenyl)-vinyl)-3-styryl-1H-indazole]
- inhibition at 1 µM [1, 6]: 27%
- IC50 ([2]; read-out: HUVEC IC50): > 700 nM

Molecule: COc1cc(O)ccc1-c1ccc2c(-c3nc4c(N5CCN(C)CC5)cccc4[nH]3)n[nH]c2c1 [Reference Example 25(d)]
- inhibition at 1 µM (human FGF-R1; read-out: FGF* (% inhibition)): 80%
- inhibition at 1 µM (LCK tyrosine kinase; read-out: Lck* (% inhibition)): 60%
- inhibition at 1 µM (human CHK1 (FL-CHK1); read-out: CHK1* (% inhibition)): 87%

Molecule: CCn1nc(C)cc1C(=O)Nc1cccc(Oc2ccc3c(/C=C/c4cn(C)c(C)n4)n[nH]c3c2)c1 [Reference Example 31(f), 6-[3-((1-Ethyl-3-methyl-1H-pyrazol-5-yl)carboxamido)phenoxy]-3-E-[2-(1,2-dimethyl-1H-imidazol-4-yl)ethenyl]-1H-indazole]
- inhibition at 1 µM (human FGF-R1; Table 1, compound concentration 1 µM, read-out: FGF-P* (% inhibition)): 99%
- inhibition at 1 µM (LCK tyrosine kinase; Table 1, compound concentration 1 µM, read-out: Lck-P* (% inhibition)): 62%
- IC50 ([2]; + albumin, read-out: HUVEC + albumin IC50): > 10 nM
- T1/2 [3]: 2.6 h
- AUC (in vivo): > 245 µg·h/mL
- inhibition at 0.05 µM [4]: 97%

Molecule: COc1cc(O)ccc1-c1ccc2c(-c3nc4cc(N(C)C)ccc4[nH]3)n[nH]c2c1 [Reference Example 25(h), 3-(5-Dimethylamino-1H-benzoimidazol-2-yl)-6-(2-methoxy-4-hydroxy-phenyl)-1H-indazole]
- inhibition at 1 µM (human FGF-R1; read-out: FGF* (% inhibition)): 91%
- inhibition at 1 µM (LCK tyrosine kinase; read-out: Lck* (% inhibition)): 87%
- inhibition at 1 µM (human CHK1 (FL-CHK1); read-out: CHK1* (% inhibition)): 86%

Molecule: CSc1cc(O)ccc1-c1ccc2c(-c3nc4ccccc4[nH]3)n[nH]c2c1 [Reference Example 24(k), 3-1H-Benzoimidazol-2-yl-6.(2-methylsulfanyl-4-hydroxyphenyl}-1H-indazole]
- inhibition at 1 µM (LCK tyrosine kinase; read-out: Lck* (% inhibition)): 89%
- inhibition at 1 µM (human CHK1 (FL-CHK1); read-out: CHK1* (% inhibition)): 81%

Molecule: O=C(c1ccccc1)c1ccc2c(/C=C/c3ccccc3)n[nH]c2c1 [Example 17, Phenyl-(3-styryl-1H-indazol-6-yl)-methanone]
- inhibition at 1 µM [1]: 50%

Molecule: COc1cc(O)ccc1-c1ccc2c(-c3ncc[nH]3)n[nH]c2c1 [Reference Example 25(e), 3-imidazol-2-yl-6-(2-methoxy-4-hydroxyphenyl)-1H-indazole]
- inhibition at 1 µM (human FGF-R1; read-out: FGF* (% inhibition)): 26%
- inhibition at 1 µM (LCK tyrosine kinase; read-out: Lck* (% inhibition)): 13%
- inhibition at 1 µM (human CHK1 (FL-CHK1); read-out: CHK1* (% inhibition)): 16%

Molecule: COc1cc(O)ccc1-c1ccc2c(-c3nc4ccc(C(=O)NCCN5CCOCC5)cc4[nH]3)n[nH]c2c1 [Reference Example 25(b), 3-[6-(2-morpholin-4-yl-ethylcarbamoyl)-1H-benzoimidazol-2-yl]-6-(2-methoxy-4-hydroxyphenyl)-1H-indazole]
- inhibition at 1 µM (human FGF-R1; read-out: FGF* (% inhibition)): 87%
- inhibition at 1 µM (LCK tyrosine kinase; read-out: Lck* (% inhibition)): 87%
- inhibition at 1 µM (human CHK1 (FL-CHK1); read-out: CHK1* (% inhibition)): 83%

Molecule: COc1ccc(-c2ccc3c(/C=C/c4ccccc4)n[nH]c3c2)cc1 [Reference Example 27(c)]
- inhibition at 5 µM (human CHK1 (FL-CHK1); read-out: CHK-1* (% inhibition @ 5 µM)): 11%

Molecule: COCOc1ccc(Oc2ccc3c(/C=C/c4ccccc4)n[nH]c3c2)cc1 [8(b), 3-(E-styryl)-6-[4-(methoxymethoxy)phenoxy]-1H-indazole]
- inhibition at 50 µM (human CHK1 (FL-CHK1); [5]): 12%

Molecule: Fc1ccc(F)c(/C=C/c2n[nH]c3cc(-c4ccncc4)ccc23)c1 [Reference Example 29(s), 6-pyrid-4-yl-3-E-[2-(2,5-difluorophenyl)ethenyl]-1H-indazole]
- Ki (human CHK1 (FL-CHK1); read-out: CHK-1* (Ki); Table 3): 11000 nM

Molecule: COc1cccc(-c2ccc3c(/C=C/c4ccccc4)n[nH]c3c2)c1 [Reference Example 27(b)]
- inhibition at 50 µM (human CHK1 (FL-CHK1); [5]): 28%

Molecule: Oc1ccc(Oc2ccc3c(/C=C/c4ccccc4)n[nH]c3c2)cc1 [9(b), 3-(E-styryl)-6-[4-hydroxyphenoxy]-1H-indazole]
- inhibition at 10 µM [1]: 88%
